In PubChem BioAssay (NCI):
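96-well plates; 48 h exposure; 5 concentrations. Endpoints by linear interpolation between flanking doses. Not reached: highest tested concentration assigned. GI50 = concentration required for 50% inhibition of growth. TGI: concentration producing complete growth inhibition.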

Experiments:
Assay in all cases: NCI anticancer screen, dose series, 48 h
MDA-MB-435 = tested on: MDA-MB-435
MOLT-4 leukemia = tested on: MOLT-4 leukemia
786-0 renal = tested on: 786-0 renal
EKVX NSCLC = tested on: EKVX NSCLC
RXF 393 renal = tested on: RXF 393 renal
OVCAR-8 ovarian = tested on: OVCAR-8 ovarian
SN12C renal = tested on: SN12C renal
HOP-62 NSCLC = tested on: HOP-62 NSCLC
PC-3 prostate = tested on: PC-3 prostate
SF-539 CNS = tested on: SF-539 CNS

Compound | TGI (MDA-MB-435) [µM] | TGI (MOLT-4 leukemia) [µM] | TGI (786-0 renal) [µM] | TGI (EKVX NSCLC) [µM] | TGI (RXF 393 renal) [µM] | TGI (OVCAR-8 ovarian) [µM] | TGI (SN12C renal) [µM] | TGI (HOP-62 NSCLC) [µM] | TGI (PC-3 prostate) [µM] | TGI (SF-539 CNS) [µM] | GI50 (MDA-MB-435) [µM] | GI50 (MOLT-4 leukemia) [µM] | GI50 (EKVX NSCLC) [µM] | GI50 (RXF 393 renal) [µM] | GI50 (SF-539 CNS) [µM] | GI50 (OVCAR-8 ovarian) [µM] | GI50 (SN12C renal) [µM] | GI50 (HOP-62 NSCLC) [µM] | GI50 (PC-3 prostate) [µM]
CCC(=O)n1c(=O)n(-c2ccc([N+](=O)[O-])cc2)c(=O)n1C(=O)CC | > 100 | > 100 | > 100 | > 100 | > 100 | > 100 | > 100 | > 100 | > 100 |  |  |  |  |  |  |  |  |  | 
CCCCCCCCCCOC1C(C(C)OCCCN(C)C)OC2OC3(CCCCC3)OC21 (centres undefined) | 30.3 | 30.6 | 30.9 | 33 | 31 | 34.6 | 30.3 | 31.4 | 25.2 |  |  |  |  |  |  |  |  |  | 
CC1=NN(C(=O)c2ccccc2)C(=O)C1N=Nc1ccccc1C(=O)O (centres undefined) |  | > 100 |  | > 100 | > 100 | > 100 | > 100 | > 100 |  | > 100 |  |  |  |  |  |  |  |  | 
Cn1nc2ccc3nccc(NCCNCCCl)c3c2n1 |  | > 100 |  | > 100 | > 100 | > 100 | > 100 | > 100 |  | > 100 |  |  |  |  |  |  |  |  | 
N/C(=N\N=C/c1cc(Cl)cc(Cl)c1O)NO |  | > 23 |  | 37.6 | 26.8 | 19 | 33.4 | 12.5 |  | 8.34 |  |  |  |  |  |  |  |  | 
CC(C)(CO)NC(=O)c1cccc(C(=O)NC(C)(C)CO)c1Br | > 100 | > 100 | > 100 | > 100 | > 100 | > 100 |  | > 100 | > 100 | > 100 |  |  |  |  |  |  |  |  | 
CCNC(=O)CCCCC(=O)c1c(C)[nH]c(/C=C2\N=C(c3ccc[nH]3)C=C2OC)c1C | 7.74 | > 100 |  | 31.7 | 8.41 | 7.73 | 6.16 | 2.88 | 5.8 | 3.34 | 2.77 | 2.31 | 11.2 | 2.97 | 1.59 | 2.96 | 2.47 | 1.1 | 1.63
COc1cc(C2c3cc4c(cc3[C@@H](Nc3ccc(N5CCOCC5)cc3)C3COC(=O)[C@H]23)OCO4)cc(OC)c1O (some centres undefined) |  | 0.19 |  | 5.06 | 5.86 | 3.95 | 2.12 | 0.829 |  | 2.32 |  |  |  |  |  |  |  |  | 
CCOC(=O)C1CCn2c(nc3c(=O)n(C)c(=O)n(C)c32)S1 (centres undefined) |  | > 100 |  | > 100 | > 100 | > 100 | > 100 | > 100 |  | > 100 |  |  |  |  |  |  |  |  | 
CCOC(=O)CCc1c(C)c2c(O)cc(O)cc2oc1=O |  | > 100 |  | > 100 | > 100 | > 100 | > 100 | > 100 |  | > 100 |  |  |  |  |  |  |  |  | 
CCOC(=O)c1ccc2c(=O)n3c(C(=O)OCC)ccc3c(=O)n12 | > 100 | > 100 | > 100 | > 100 | > 100 | > 100 | > 100 | > 100 | > 100 |  |  |  |  |  |  |  |  |  | 
CN(C)S(=O)(=O)c1cccc(-c2nc3sc4c(c3c(=O)[nH]2)CCCC4)c1 |  | > 100 |  | > 100 |  | > 100 |  | > 100 |  |  |  | > 100 | > 100 |  |  | 1.52 |  | 3.73 | 
CCCCCCCCCCCCCCCCCCNC(=S)/N=C/c1c(O)cc(C)oc1=O | 55.6 | > 100 | > 100 | 57.9 |  | 63.4 | > 100 | > 100 | 69.8 | 62.3 |  |  |  |  |  |  |  |  | 
CCOC(=O)CC(=Nc1cc(C)on1)N(CC)CC |  | > 100 | > 100 | > 100 |  | > 100 | > 100 | > 100 |  | > 100 |  |  |  |  |  |  |  |  | 
O=C(NN1C(=O)C(Cl)C1c1ccc([N+](=O)[O-])cc1)c1ccccc1O (centres undefined) |  | > 100 |  | > 100 | > 100 | > 100 | > 100 | > 100 |  | > 100 |  |  |  |  |  |  |  |  | 
Cc1ccc(C(=O)NC(C)C)cc1N=NN(C)C |  |  | > 100 | > 100 |  | > 100 | > 100 | > 100 |  | > 100 |  |  |  |  |  |  |  |  | 
COc1ccc2c(c1)Cc1c-2[nH]c2cc3c(cc2c1=O)OCO3 |  | 41.9 | > 100 | > 100 | 19.5 | > 100 | > 100 | 45.1 |  | 30.6 |  |  |  |  |  |  |  |  | 
COC(=O)C1=C2Nc3ccccc3C23CCN2C(O)C4(CC5CC67CCOC6CCN6CCC8(c9cccc(OC)c9N(C4)C58O)C67)C4OCCC4(C1)C23 (centres undefined) | > 100 |  | 50.5 | > 100 | > 100 | 61.3 | > 100 | > 100 | > 100 | > 100 |  |  |  |  |  |  |  |  | 
CNC(=O)C(NC(=O)[C@H](CC(C)C)NC(=O)[C@@H](S)CCN1C(=O)N(C)C(C)(C)C1=O)C(C)(C)C (some centres undefined) | > 100 | > 100 | > 100 | > 100 | > 100 | > 100 | > 100 | > 100 | > 100 |  |  |  |  |  |  |  |  |  | 
COC(=O)C(Cc1ccccc1)NC(=O)C(CCCN=C(N)N)NC(=O)OCc1ccccc1 (centres undefined) | > 100 | > 100 | > 100 | > 100 | > 100 | > 100 | > 100 | > 100 | > 100 |  |  |  |  |  |  |  |  |  | 
CN1CCN(c2ccc3nc(-c4ccc5nc(-c6ccc(N(C)CCCl)cc6)[nH]c5c4)[nH]c3c2)CC1 | 0.281 | 0.357 | 1.11 |  | 0.501 | 1.53 | 1.13 | 0.645 | 0.383 | 0.462 |  |  |  |  |  |  |  |  | 
O=C(/C=C/c1ccsc1)c1ccc(Cl)s1 | 79.9 | 52 |  | > 100 |  | > 100 | > 100 | > 100 | > 100 | > 100 |  |  |  |  |  |  |  |  | 
N#CCCCCC12C3C(=O)N(c4ccccc4)C(=O)C3ON1O[C@@H]1C(=O)N(c3ccccc3)C(=O)[C@@H]12 (some centres undefined) | > 100 | > 100 | > 100 | > 100 |  | > 100 | > 100 | > 100 | > 100 | > 100 |  |  |  |  |  |  |  |  | 
